Structures can show the parent of a compound that is named as a salt. Where two headings read alike, the source gives them in different places.
Tested on: HUVECs
Assay: Tube formation (tubulogenesis) assay in HUVECs, 18 h
Type: cell-based, human
Conditions: for activity at 0.01 µM / activity at 0.1 µM / activity at 1 µM / activity at 10 µM / activity at 100 µM / minimal effective concentration: Homo sapiens, HUVEC, 18 h; for activity at 0.1 µM: 0.10 µM; for huvec.mtl.18hr / huvec.tlps.18hr / huvec.tta.18hr / huvec.ttl.18hr: HUVECs tube formation, 0.00 µM = 100.00
Method in brief: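 HUVECs (passage 1–5) seeded on reduced-growth-factor basement membrane and exposed to compounds overnight at 37°C, 5% CO2, in 2× maintenance medium with 12.5 ng/mL VEGF; 0.5% DMSO vehicle. Calcein AM-stained tube networks imaged and analysed; vehicle-normalized readouts fit to four-parameter logistic, POD set at one SD of vehicle means.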

[1] = HUVECs, 0.00 µM = 100.00, read-out: huvec.mtl.18hr
[2] = HUVECs, 0.00 µM = 100.00, read-out: huvec.tlps.18hr
[3] = HUVECs, 0.00 µM = 100.00, read-out: huvec.tta.18hr
[4] = HUVECs, 0.00 µM = 100.00, read-out: huvec.ttl.18hr
[5] = tube formation mtl, read-out: POD huvec.mtl.18hr
[6] = tube formation tlps, read-out: POD huvec.tlps.18hr
[7] = tube formation tta, read-out: POD huvec.tta.18hr
[8] = tube formation ttl, read-out: POD huvec.ttl.18hr

## Oc1cc(Cl)cc(-c2cccc(Cl)c2)c1 [5-OH PCB 11]
[1]
  activity at 0.01 µM: 117%
  activity at 0.1 µM: 121%
  activity at 1 µM: 103%
  activity at 10 µM: 81.1%
  activity at 100 µM: 63%
[2]
  activity at 0.01 µM: 148%
  activity at 0.1 µM: 186%
  activity at 1 µM: 111%
  activity at 10 µM: 102%
  activity at 100 µM: 38.8%
[3]
  activity at 0.01 µM: 116%
  activity at 0.1 µM: 123%
  activity at 1 µM: 113%
  activity at 10 µM: 76.5%
  activity at 100 µM: 111%
[4]
  activity at 0.01 µM: 106%
  activity at 0.1 µM: 106%
  activity at 1 µM: 104%
  activity at 10 µM: 67.6%
  activity at 100 µM: 94.6%
HUVECs, top concentration 100.00 µM, read-out: huvec.mtl.18hr POD
  minimal effective concentration: 6.98 µM
HUVECs, top concentration 100.00 µM, read-out: huvec.tlps.18hr POD
  minimal effective concentration: 100 µM
HUVECs, top concentration 100.00 µM, read-out: huvec.tta.18hr POD
  minimal effective concentration: 100 µM
HUVECs, top concentration 100.00 µM, read-out: huvec.ttl.18hr POD
  minimal effective concentration: 32.7 µM

## Clc1cccc(-c2cccc(Cl)c2)c1 [PCB 11, 3,3′-Dichlorobiphenyl]
[5]
  minimal effective concentration: 100 µM
[6]
  minimal effective concentration: 41.8 µM
[7]
  minimal effective concentration: 100 µM
[8]
  minimal effective concentration: 100 µM

## Clc1ccc(Cl)c(-c2c(Cl)ccc(Cl)c2Cl)c1Cl [(-)-PCB 136, 2,2′,3,3′,6,6′-hexachlorobiphenyl]
Concentration 0.01 µM
  huvec.mtl.18hr: 89.52
  huvec.tlps.18hr: 87.45
  huvec.tta.18hr: 86.96
  huvec.ttl.18hr: 85.21
Concentration 0.10 µM
  huvec.mtl.18hr: 105.15
  huvec.tlps.18hr: 104.95
  huvec.tta.18hr: 96.50
  huvec.ttl.18hr: 89.39
Concentration 1.00 µM
  huvec.mtl.18hr: 101.33
  huvec.tlps.18hr: 99.50
  huvec.tta.18hr: 114.69
  huvec.ttl.18hr: 103.47
Concentration 10.00 µM
  huvec.mtl.18hr: 94.11
  huvec.tlps.18hr: 92.84
  huvec.tta.18hr: 112.35
  huvec.ttl.18hr: 101.40
Concentration 100.00 µM
  huvec.mtl.18hr: 75.12
  huvec.tlps.18hr: 53.61
  huvec.tta.18hr: 117.52
  huvec.ttl.18hr: 95.13

## Clc1cc(Cl)c(-c2cc(Cl)c(Cl)cc2Cl)cc1Cl [PCB 153, 2,2′,4,4′,5,5′-hexachlorobiphenyl]
[5]
  minimal effective concentration: 19.8 µM
[6]
  minimal effective concentration: 61.8 µM
[7]
  minimal effective concentration: 8.87 µM
[8]
  minimal effective concentration: 0.13 µM

## Oc1ccc(-c2ccc(Cl)cc2)cc1 [4'-OH-PCB 3]
[5]
  minimal effective concentration: 1.21 µM
[6]
  minimal effective concentration: 0.51 µM
[7]
  minimal effective concentration: 5.36 µM
[8]
  minimal effective concentration: 5.16 µM

## O=S(=O)(O)Oc1cc(-c2ccccc2)ccc1Cl [3-PCB 3 sulfate]
[5]
  minimal effective concentration: 11.5 µM
[6]
  minimal effective concentration: 65.8 µM
[7]
  minimal effective concentration: 100 µM
[8]
  minimal effective concentration: 52.1 µM

## O=S(=O)(O)Oc1ccc(-c2cccc(Cl)c2)cc1Cl [4-PCB 11 sulfate]
[5]
  minimal effective concentration: 14.3 µM
[6]
  minimal effective concentration: 27.2 µM
[7]
  minimal effective concentration: 100 µM
[8]
  minimal effective concentration: 100 µM

## Oc1ccc(-c2cccc(Cl)c2)cc1Cl [4-OH-PCB 11]
[5]
  minimal effective concentration: 7.09 µM
[6]
  minimal effective concentration: 35.3 µM
[7]
  minimal effective concentration: 100 µM
[8]
  minimal effective concentration: 4.15 µM

Reference: publication PMC7377239, “Cardiovascular Effects of Polychlorinated Biphenyls and Their Major Metabolites” (Environmental Health Perspectives, 2020)
